Results published in the NIST ThermoML archive (doi:10.1016/j.jct.2004.11.009).

Experiment: xn = mol fraction of the nth substance listed
Conditions: 101.33 kPa, Liquid

Cc1cccnc1 [3-methylpyridine] + O
Conditions | mass density, 293.15 K [kg/m3] | mass density, 303.15 K [kg/m3] | mass density, 313.15 K [kg/m3] | viscosity, 293.15 K [mPa·s] | viscosity, 303.15 K [mPa·s] | viscosity, 313.15 K [mPa·s]
x1 = 0.0101 | 998 | 995.1 | 991.2 | 1.149 | 0.913 | 0.731
x1 = 0.0211 | 997.8 | 994.4 | 990.2 | 1.301 | 1.021 | 0.8139
x1 = 0.033 | 997.5 | 993.7 | 989.2 | 1.467 | 1.133 | 0.8959
x1 = 0.0462 | 997.2 | 992.9 | 988 | 1.626 | 1.255 | 0.98
x1 = 0.114 | 995.4 | 989.3 | 982.9 | 2.301 | 1.705 | 1.307
x1 = 0.225 | 992.1 | 984 | 976.4 | 2.914 | 2.022 | 1.572
x1 = 0.36 | 986.9 | 977.8 | 968.9 | 3.04 | 2.034 | 1.588
x1 = 0.436 | 983.1 | 973.6 | 964.7 | 2.9 | 1.938 | 1.511
x1 = 0.5 | 979.7 | 970.2 | 961 | 2.733 | 1.83 | 1.43
x1 = 0.6 | 974.3 | 964.5 | 955.3 | 2.386 | 1.638 | 1.286
x1 = 0.7 | 969 | 959.4 | 950.2 | 2.021 | 1.449 | 1.149
x1 = 0.8 | 964.1 | 954.6 | 945.5 | 1.655 | 1.255 | 1.018
x1 = 0.9 | 959.8 | 950.3 | 941.3 | 1.31 | 1.049 | 0.884
x1 = 1 | 956 | 946.6 | 937.7 | 0.9459 | 0.8318 | 0.7352
